Assays:
rape = assay: Test B pre/postemergence rape; assay type: in vivo, Brassica napus
Procedure, shortened: (§1)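 Herbicidal effect was estimated by eye on a ten-point control scale after plants spent twelve to sixteen days in a greenhouse following soil or foliar treatment. Foliar sprays targeted plants at one to four leaves; all doses were formulated in a non-phytotoxic solvent with surfactant.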

cocklebur = assay: Test B pre/postemergence cocklebur; assay type: in vivo, Xanthium strumarium
Procedure, shortened: as §1

bamyardgrass = assay: Test B flood test barnyardgrass; assay type: in vivo, Echinochloa crus-galli
Procedure, shortened: (§2)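 Each value is a visual injury score relative to controls, with 10 meaning complete control and 0 no effect. Evaluation took place twelve to sixteen days after the 2-leaf-stage plants were treated and kept in the greenhouse.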

smallflower flatsedge = assay: Test B flood test smallflower flatsedge; assay type: in vivo, Cyperus difformis
Procedure, shortened: as §2

blackgrass = assay: Test B pre/postemergence blackgrass; assay type: in vivo, Alopecurus myosuroides
Procedure, shortened: as §1

wild oat = assay: Test B pre/postemergence wild oat; assay type: in vivo, Avena fatua
Procedure, shortened: as §1

sugar beet = assay: Test B pre/postemergence sugar beet; assay type: in vivo, Beta vulgaris
Procedure, shortened: as §1

morningglory = assay: Test B pre/postemergence morningglory; assay type: in vivo, Ipomoea hederacea
Procedure, shortened: as §1

pigweed = assay: Test B pre/postemergence pigweed; assay type: in vivo, Amaranthus retroflexus
Procedure, shortened: as §1

corn = assay: Test B pre/postemergence corn; assay type: in vivo, Zea mays
Procedure, shortened: as §1

rice = assay: Test B flood test rice; assay type: in vivo, Oryza sativa
Procedure, shortened: as §2

velvetleaf = assay: Test B pre/postemergence velvetleaf; assay type: in vivo, Abutilon theophrasti
Procedure, shortened: as §1

crabgrass = assay: Test B pre/postemergence crabgrass; assay type: in vivo, Digitaria sanguinalis
Procedure, shortened: as §1

giant foxtail = assay: Test B pre/postemergence giant foxtail; assay type: in vivo, Setaria faberii
Procedure, shortened: as §1

surinam grass = assay: Test B pre/postemergence surinam grass; assay type: in vivo, Brachiaria decumbens
Procedure, shortened: as §1

[1] = Postemergence, Rate 250 g/ha, scale 0 to 10, 0 is no effect, 10 is complete control
[2] = Postemergence, Rate 500 g/ha, scale of 0 to 10 where 0 is no effect and 10 is complete control
[3] = Preemergence, Rate 62 g/ha, scale 0 to 10 (0 no effect, 10 complete control)
[4] = Preemergence, Rate 125 g/ha, scale of 0 to 10 where 0 is no effect and 10 is complete control
[5] = Preemergence, Rate 250 g/ha, scale 0 to 10, 0 is no effect, 10 is complete control
[6] = Preemergence, Rate 500 g/ha, scale 0 to 10, 0 is no effect, 10 is complete control
[7] = Rate 62 g/ha, Postemergence, scale of 0 to 10 where 0 is no effect and 10 is complete control
[8] = Postemergence, Rate 125 g/ha, scale 0 to 10, 0 is no effect, 10 is complete control
[9] = Postemergence section (flood test species), Rate 500 g/ha, scale of 0 to 10 where 0 is no effect and 10 is complete control
[10] = Rate 62 g/ha, Postemergence (flood test species), scale of 0 to 10 where 0 is no effect and 10 is complete control
[11] = flood test species, listed under Postemergence, Rate 250 g/ha, scale 0 to 10, 0 is no effect, 10 is complete control
[12] = Preemergence, Rate 250 g/ha, scale of 0 to 10 where 0 is no effect and 10 is complete control
[13] = Preemergence, Rate 500 g/ha, scale of 0 to 10 where 0 is no effect and 10 is complete control
[14] = Postemergence, Rate 250 g/ha, scale 0 to 10
[15] = Rate 125 g/ha, Postemergence, scale 0 to 10, 0 is no effect, 10 is complete control
[16] = Postemergence block (flood test species), Rate 250 g/ha, scale 0 to 10
[17] = Rate 125 g/ha, Postemergence section (flood test species), scale 0 to 10, 0 is no effect, 10 is complete control

## CC(C)N(C(=O)n1oc(=O)n(CCC(F)(F)F)c1=O)c1ccc(F)cc1 [Compound 397]
rape; [1]
  Plant response rating, Rape: 0
rape; [2]
  Rape plant response rating: 2
rape; [3]
  Plant response rating, Rape: 3
rape; [4]
  Plant response rating, Rape: 9
rape; [5]
  Rape plant response rating: 10
rape; [6]
  Rape plant response rating: 10
rape; [7]
  Rape plant response rating: 0
cocklebur; [8]
  Plant response rating, Cocklebur: 0
cocklebur; [1]
  Plant response rating, Cocklebur: 0
cocklebur; [2]
  Cocklebur plant response rating: 0
cocklebur; [3]
  Plant response rating, Cocklebur: 0
cocklebur; [4]
  Plant response rating, Cocklebur: 0
cocklebur; [5]
  Cocklebur plant response rating: 0
cocklebur; [6]
  Cocklebur plant response rating: 0
cocklebur; [7]
  Cocklebur plant response rating: 0
bamyardgrass; Postemergence (flood test), Rate 125 g/ha, scale 0 to 10, 0 is no effect, 10 is complete control
  Plant response rating, Barnyardgrass: 0
bamyardgrass; [9]
  Barnyardgrass plant response rating: 0
bamyardgrass; [10]
  Barnyardgrass plant response rating: 0
bamyardgrass; [11]
  Plant response rating, Barnyardgrass: 0
Smallflower flatsedge; [9]
  S. Flatsedge plant response rating: 0
Smallflower flatsedge; [10]
  S. Flatsedge plant response rating: 0
Smallflower flatsedge; [11]
  Plant response rating, S. Flatsedge: 0
blackgrass; [8]
  Plant response rating, Blackgrass: 8
blackgrass; [1]
  Plant response rating, Blackgrass: 9
blackgrass; [2]
  Blackgrass plant response rating: 9
blackgrass; [3]
  Plant response rating, Blackgrass: 7
blackgrass; [4]
  Plant response rating, Blackgrass: 9
blackgrass; [12]
  Blackgrass plant response rating: 10
blackgrass; [6]
  Blackgrass plant response rating: 10
blackgrass; [7]
  Blackgrass plant response rating: 6
Wild oat; [2]
  Wild oats plant response rating: 5
Wild oat; [3]
  Plant response rating, Wild oats: 2
Wild oat; [4]
  Plant response rating, Wild oats: 5
Wild oat; [5]
  Wild oats plant response rating: 7
Wild oat; [6]
  Wild oats plant response rating: 10
Wild oat; [7]
  Wild oats plant response rating: 0
Sugar beet; [1]
  Plant response rating, Sugarbeets: 0
Sugar beet; [2]
  Sugarbeets plant response rating: 0
Sugar beet; [3]
  Plant response rating, Sugarbeets: 0
Sugar beet; [4]
  Plant response rating, Sugarbeets: 4
Sugar beet; [5]
  Sugarbeets plant response rating: 7
Sugar beet; [6]
  Sugarbeets plant response rating: 9
Sugar beet; [7]
  Sugarbeets plant response rating: 0
morningglory; [1]
  Plant response rating, Morningglory: 5
morningglory; [2]
  Morningglory plant response rating: 6
morningglory; [3]
  Plant response rating, Morningglory: 0
morningglory; [4]
  Plant response rating, Morningglory: 0
morningglory; [5]
  Morningglory plant response rating: 0
morningglory; [6]
  Morningglory plant response rating: 4
morningglory; [7]
  Morningglory plant response rating: 0
pigweed; [1]
  Plant response rating, Redroot pigweed: 4
pigweed; [2]
  Redroot pigweed plant response rating: 6
pigweed; [3]
  Plant response rating, Redroot pigweed: 8
pigweed; [4]
  Plant response rating, Redroot pigweed: 8
pigweed; [5]
  Redroot pigweed plant response rating: 10
pigweed; [6]
  Redroot pigweed plant response rating: 10
pigweed; [7]
  Redroot pigweed plant response rating: 0
corn; [8]
  Plant response rating, Corn: 0
corn; [1]
  Plant response rating, Corn: 0
corn; [2]
  Corn plant response rating: 0
corn; [3]
  Plant response rating, Corn: 0
corn; [4]
  Plant response rating, Corn: 0
corn; [5]
  Corn plant response rating: 3
corn; [6]
  Corn plant response rating: 8
corn; [7]
  Corn plant response rating: 0
rice; [9]
  Rice plant response rating: 0
rice; [10]
  Rice plant response rating: 0
rice; [11]
  Plant response rating, Rice: 0
velvetleaf; [1]
  Plant response rating, Velvetleaf: 0
velvetleaf; [2]
  Velvetleaf plant response rating: 0
velvetleaf; [3]
  Plant response rating, Velvetleaf: 0
velvetleaf; [4]
  Plant response rating, Velvetleaf: 2
velvetleaf; [5]
  Velvetleaf plant response rating: 6
velvetleaf; [6]
  Velvetleaf plant response rating: 6
velvetleaf; [7]
  Velvetleaf plant response rating: 0
crabgrass; [8]
  Plant response rating, Crabgrass: 6
crabgrass; [1]
  Plant response rating, Crabgrass: 9
crabgrass; [2]
  Crabgrass plant response rating: 9
crabgrass; [3]
  Plant response rating, Crabgrass: 10
crabgrass; [4]
  Plant response rating, Crabgrass: 10
crabgrass; [5]
  Crabgrass plant response rating: 10
crabgrass; [6]
  Crabgrass plant response rating: 10
crabgrass; [7]
  Crabgrass plant response rating: 2
Giant foxtail; [8]
  Plant response rating, Giant foxtail: 8
Giant foxtail; [1]
  Plant response rating, Giant foxtail: 9
Giant foxtail; [2]
  Giant foxtail plant response rating: 9
Giant foxtail; [3]
  Plant response rating, Giant foxtail: 10
Giant foxtail; [4]
  Plant response rating, Giant foxtail: 10
Giant foxtail; [5]
  Giant foxtail plant response rating: 10
Giant foxtail; [6]
  Giant foxtail plant response rating: 10
Giant foxtail; [7]
  Giant foxtail plant response rating: 8
Surinam grass; [8]
  Plant response rating, B. signalgrass: 0
Surinam grass; [1]
  Plant response rating, B. signalgrass: 2
Surinam grass; [2]
  B. signalgrass plant response rating: 8
Surinam grass; [3]
  Plant response rating, B. signalgrass: 3
Surinam grass; [4]
  Plant response rating, B. signalgrass: 6
Surinam grass; [12]
  B. signalgrass plant response rating: 9
Surinam grass; [13]
  B. signalgrass plant response rating: 10
Surinam grass; [7]
  B. signalgrass plant response rating: 0

## C=C[Si](C)(C)Cn1c(=O)on(C(=O)N(c2ccc(Cl)cc2)C(C)C)c1=O [Compound 425]
rape; [14]
  Rape plant response rating: 2
rape; [2]
  Rape plant response rating: 3
rape; [3]
  Plant response rating, Rape: 0
rape; [4]
  Plant response rating, Rape: 2
rape; [5]
  Rape plant response rating: 2
rape; [6]
  Rape plant response rating: 10
rape; [15]
  Rape plant response rating: 0
cocklebur; [14]
  Cocklebur plant response rating: 0
cocklebur; [2]
  Cocklebur plant response rating: 0
cocklebur; [3]
  Plant response rating, Cocklebur: 0
cocklebur; [4]
  Plant response rating, Cocklebur: 0
cocklebur; [5]
  Cocklebur plant response rating: 0
cocklebur; [6]
  Cocklebur plant response rating: 2
cocklebur; [7]
  Cocklebur plant response rating: 0
cocklebur; [15]
  Cocklebur plant response rating: 0
bamyardgrass; [16]
  Barnyardgrass plant response rating: 1
bamyardgrass; [9]
  Barnyardgrass plant response rating: 7
bamyardgrass; [10]
  Barnyardgrass plant response rating: 0
bamyardgrass; [17]
  Barnyardgrass plant response rating: 0
Smallflower flatsedge; [16]
  S. Flatsedge plant response rating: 2
Smallflower flatsedge; [9]
  S. Flatsedge plant response rating: 6
Smallflower flatsedge; [17]
  S. Flatsedge plant response rating: 0
blackgrass; [14]
  Blackgrass plant response rating: 8
blackgrass; [2]
  Blackgrass plant response rating: 9
blackgrass; [3]
  Plant response rating, Blackgrass: 7
blackgrass; [4]
  Plant response rating, Blackgrass: 9
blackgrass; [12]
  Blackgrass plant response rating: 9
blackgrass; [6]
  Blackgrass plant response rating: 10
blackgrass; [7]
  Blackgrass plant response rating: 2
blackgrass; [15]
  Blackgrass plant response rating: 3
Wild oat; [14]
  Wild oats plant response rating: 2
Wild oat; [2]
  Wild oats plant response rating: 3
Wild oat; [3]
  Plant response rating, Wild oats: 2
Wild oat; [4]
  Plant response rating, Wild oats: 4
Wild oat; [5]
  Wild oats plant response rating: 4
Wild oat; [6]
  Wild oats plant response rating: 10
Wild oat; [15]
  Wild oats plant response rating: 0
Sugar beet; [14]
  Sugarbeets plant response rating: 3
Sugar beet; [2]
  Sugarbeets plant response rating: 4
Sugar beet; [3]
  Plant response rating, Sugarbeets: 0
Sugar beet; [4]
  Plant response rating, Sugarbeets: 0
Sugar beet; [5]
  Sugarbeets plant response rating: 2
Sugar beet; [6]
  Sugarbeets plant response rating: 2
Sugar beet; [15]
  Sugarbeets plant response rating: 2
morningglory; [14]
  Morningglory plant response rating: 6
morningglory; [2]
  Morningglory plant response rating: 10
morningglory; [3]
  Plant response rating, Morningglory: 0
morningglory; [4]
  Plant response rating, Morningglory: 0
morningglory; [5]
  Morningglory plant response rating: 2
morningglory; [6]
  Morningglory plant response rating: 4
morningglory; [15]
  Morningglory plant response rating: 5
pigweed; [14]
  Redroot pigweed plant response rating: 2
pigweed; [2]
  Redroot pigweed plant response rating: 2
pigweed; [3]
  Plant response rating, Redroot pigweed: 0
pigweed; [4]
  Plant response rating, Redroot pigweed: 0
pigweed; [5]
  Redroot pigweed plant response rating: 3
pigweed; [6]
  Redroot pigweed plant response rating: 3
pigweed; [15]
  Redroot pigweed plant response rating: 0
corn; [14]
  Corn plant response rating: 0
corn; [2]
  Corn plant response rating: 2
corn; [3]
  Plant response rating, Corn: 0
corn; [4]
  Plant response rating, Corn: 0
corn; [5]
  Corn plant response rating: 0
corn; [6]
  Corn plant response rating: 9
corn; [7]
  Corn plant response rating: 0
corn; [15]
  Corn plant response rating: 0
rice; [16]
  Rice plant response rating: 0
rice; [9]
  Rice plant response rating: 0
rice; [17]
  Rice plant response rating: 0
velvetleaf; [14]
  Velvetleaf plant response rating: 0
velvetleaf; [2]
  Velvetleaf plant response rating: 2
velvetleaf; [3]
  Plant response rating, Velvetleaf: 0
velvetleaf; [4]
  Plant response rating, Velvetleaf: 0
velvetleaf; [5]
  Velvetleaf plant response rating: 2
velvetleaf; [6]
  Velvetleaf plant response rating: 6
velvetleaf; [15]
  Velvetleaf plant response rating: 0
crabgrass; [14]
  Crabgrass plant response rating: 8
crabgrass; [2]
  Crabgrass plant response rating: 9
crabgrass; [3]
  Plant response rating, Crabgrass: 9
crabgrass; [4]
  Plant response rating, Crabgrass: 10
crabgrass; [5]
  Crabgrass plant response rating: 10
crabgrass; [6]
  Crabgrass plant response rating: 10
crabgrass; [7]
  Crabgrass plant response rating: 4
crabgrass; [15]
  Crabgrass plant response rating: 7
Giant foxtail; [14]
  Giant foxtail plant response rating: 8
Giant foxtail; [2]
  Giant foxtail plant response rating: 9
Giant foxtail; [3]
  Plant response rating, Giant foxtail: 10
Giant foxtail; [4]
  Plant response rating, Giant foxtail: 10
Giant foxtail; [5]
  Giant foxtail plant response rating: 10
Giant foxtail; [6]
  Giant foxtail plant response rating: 10
Giant foxtail; [7]
  Giant foxtail plant response rating: 6
Giant foxtail; [15]
  Giant foxtail plant response rating: 7
Surinam grass; Postemergence, Rate 250 g/ha, scale 0 to 10, 0 no effect, 10 complete control
  B. signalgrass plant response rating: 7
Surinam grass; [2]
  B. signalgrass plant response rating: 8
Surinam grass; [3]
  Plant response rating, B. signalgrass: 3
Surinam grass; [4]
  Plant response rating, B. signalgrass: 8
Surinam grass; [12]
  B. signalgrass plant response rating: 8
Surinam grass; [13]
  B. signalgrass plant response rating: 9
Surinam grass; [7]
  B. signalgrass plant response rating: 0
Surinam grass; [15]
  B. signalgrass plant response rating: 2

Source: patent US6737383B1, “Herbicidal oxadiazolidines” (priority 1999, dated 2004)
